From patent US20100304975A1, “PROCESS FOR […] RESISTANCE TO AN ABIOTIC STRESS” (ELICITYL, priority 2007, published 2010)

Columns and labels:
Format in all cases: in vivo
Cabernet-Sauvignon = experiment: Frost-resistance of vine plants after foliar spraying, Cabernet-Sauvignon; conditions: for Gain: Cabernet Sauvignon, cold stress -3 to -5° C. 12 hours after application
Procedure: (§1) Plants originating from different vine varieties: the Chardonnay, Pinot noir and Cabernet-Sauvignon varieties are used. Each sample, composed of 5 to 21 plants, is treated by foliar spraying at different vegetative stages on the BBCH scale with a mixture containing the xyloglucan elicitor, HEPTAMALOXYLOGLUCAN or XFGol in solution at variable doses; the spraying of 2.5 ml of solution per plant is carried out using a sprayer (deviation of +/−1%).
(§2) 12 hours after the application of the elicitor, the plants were exposed to cold stress at −3 to −5° C. After exposure to the cold, the plants are placed in a climatic chamber at 20° C. with a 12-hour day/night alternation. The appearance of the leaves is observed 24 hours and 72 hours after removal from the cold. The effects of the cold are evaluated by observing the foliar necroses induced by frost and the plants are kept for several months in order to monitor their subsequent development.
(§3) The results are expressed by the protection index IP: IP (%)=100−P; P, being the proportion of necrotized leaves.

Chardonnay = experiment: Frost-resistance of vine plants after foliar spraying, Chardonnay; conditions: for Gain: cold stress -3 to -5° C. 12 hours after application
Procedure: as §1, §2, §3

kiwi plants = experiment: Frost-resistance of kiwi plants after foliar spraying (death of buds); conditions: for Gain % / IP (protection index of kiwi buds; IP=100-P, P=proportion of dead buds): elicitor 500 nM
Procedure: The elicitor which is used is HEPTAMALOXYLOGLUCAN (or XFGol).
Before the cold stress, plants are treated or not by foliar spraying with a spray mixture containing HEPTAMALOXYLOGLUCAN.
After application of the spraying mixture, the plants were exposed to cold stress. In order to reproduce artificial conditions of cold stress, plants were placed in a climatic chamber.
The effects of cold are evaluated by observing the death of buds due to frost.
The results are expressed by the protection index IP: IP (%)=100-P; P, being the proportion of dead buds.
The results are also expressed in gain:
Increase of protection of kiwi plants elicited by the product PEL101GV (500 nM). IP corresponds to the protection index of kiwi buds, 28 days after the cold stress at −2,8° C. or −4° C. (IP=100−P; P=proportion of dead buds)

Pinot noir = experiment: Frost-resistance of vine plants after foliar spraying, Pinot noir; conditions: for Gain: cold stress -3 to -5° C. 12 hours after application
Procedure: as §1, §2, §3

[1] = spray mixture containing 5 nM, compared within a range of 0.5 nM to 5000 nM
[2] = 28 days after the cold stress at -2.8° C.
[3] = 28 days after the cold stress at -4° C.

`CC1OC(OC2C(OC3C(OCC4OC(OC(C(O)CO)C(O)C(O)CO)C(O)C(O)C4OC4OC(COC5OCC(O)C(O)C5O)C(O)C(O)C4O)OCC(O)C3O)OC(CO)C(O)C2O)C(O)C(O)C1O` (stereo not drawn) [HEPTAMALOXYLOGLUCAN] showed a Gain (Cabernet-Sauvignon; elicitor 5 nM foliar spray) of 46%, a Gain (Cabernet-Sauvignon; elicitor 50 nM foliar spray) of 35% and a Gain (Cabernet-Sauvignon; elicitor 500 nM foliar spray) of 76%. The protection against frost (Cabernet-Sauvignon; Cabernet sauvignon, spray mixture containing 500 nM, compared with the other doses) was “more efficient than the other doses”, the Gain (Chardonnay; elicitor 0.5 nM foliar spray) was 28% and the Gain (Chardonnay; elicitor 5 nM foliar spray) was 42%. It also gave a Gain (Chardonnay; elicitor 50 nM foliar spray) of 9%, a Gain (Chardonnay; elicitor 500 nM foliar spray) of 0% and a Gain (Chardonnay; elicitor 5000 nM foliar spray) of 28%. The protection against frost (Chardonnay; [1]) was “more efficient than the other doses”, the Gain % (kiwi plants; [2]) was 27% and the “IP (protection index of kiwi buds; IP=100-P, P=proportion of dead buds)” value (kiwi plants; [2]) was 81%. For the same compound, the Gain % (kiwi plants; [3]) was 87%, the “IP (protection index of kiwi buds; IP=100-P, P=proportion of dead buds)” value (kiwi plants; [3]) was 56% and the “protection of the kiwi buds against frost” value (kiwi plants; treated versus control) was “better protection”. The Gain (Pinot noir; elicitor 0.5 nM foliar spray) was 0%, the Gain (Pinot noir; elicitor 5 nM foliar spray) was 34% and the Gain (Pinot noir; elicitor 50 nM foliar spray) was 0%. The Gain (Pinot noir; elicitor 500 nM foliar spray) was 27%, the Gain (Pinot noir; elicitor 5000 nM foliar spray) was 25% and the protection against frost (Pinot noir; [1]) was “more efficient than the other doses”.
